Measured values published in ChEMBL document CHEMBL1125551, “Conformationally restricted analogues of disoxaril: a comparison of the activity against human rhinovirus types 14 and 1A” (1992).
Converted amounts (≈) assume the structure as drawn.

Tests used:
Human rhinovirus 1A = test: In vitro determined against HRV-1A in a plaque reduction assay; assay type: functional
rhinovirus B14 = test: In vitro determined against HRV-14 in a plaque reduction assay; assay type: functional, human rhinovirus type 14; details: Rhinovirus B

Compound | MIC (Human rhinovirus 1A) [µM] | MIC (rhinovirus B14) [µM]
Cc1cc(CC/C=C/COc2c(Cl)cc(C3=NCCO3)cc2Cl)on1 | 2.25 (≈ 0.858 µg/mL) | 0.44 (≈ 0.168 µg/mL)
Cc1cc(CC/C=C\COc2c(Cl)cc(C3=NCCO3)cc2Cl)on1 | 4.72 (≈ 1.8 µg/mL) | 3.9 (≈ 1.49 µg/mL)
Cc1cc(CCCCCOc2c(Cl)cc(C3=NCCO3)cc2Cl)on1 [WIN-54954] | 2.5 (≈ 0.958 µg/mL) | 1.2 (≈ 0.46 µg/mL)
Cc1cc(CCCOc2c(Cl)cc(C3=NCCO3)cc2Cl)on1 | 0.46 (≈ 0.163 µg/mL) | 8.14 (≈ 2.89 µg/mL)
Cc1cc(CCC#CCOc2c(Cl)cc(C3=NCCO3)cc2Cl)on1 | > 8.2 | 0.26 (≈ 0.0986 µg/mL)
